Assays:
Assay in all cases: selective drug sensitivity score (sDSS, relative to normal bone marrow) (sDSS (score)); higher = more potent and effective on the cell line relative to normal bone marrow cells
Settings in all cases: 72 h
[1] = test system: COG-LL-394h
[2] = test system: NALM-6
[3] = test system: JURKAT
[4] = test system: SUP-B15
[5] = test system: KASUMI-2
[6] = test system: SEM cells
[7] = test system: ALL-SIL
[8] = test system: 697
[9] = test system: ALL-PO
[10] = test system: COG-LL-332h
[11] = test system: MHH-CALL-2
[12] = test system: MOLT-16
[13] = test system: PEER
[14] = test system: CCRF-HSB2
[15] = test system: COG-LL-317
[16] = test system: KARPAS-45
[17] = test system: HAL-01
[18] = test system: MHH-CALL-4
[19] = test system: RCH-ACV
[20] = test system: TANOUE
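Further: ALL cell lines in 384-well plates, five doses spanning 10,000-fold, each plate scaled between vehicle and 100 µmol/L benzalkonium chloride controls, sDSS an adapted area-under-curve metric.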

Structure (SMILES) | selective drug sensitivity score [1] | selective drug sensitivity score [2] | selective drug sensitivity score [3] | selective drug sensitivity score [4] | selective drug sensitivity score [5] | selective drug sensitivity score [6] | selective drug sensitivity score [7] | selective drug sensitivity score [8] | selective drug sensitivity score [9] | selective drug sensitivity score [10] | selective drug sensitivity score [11] | selective drug sensitivity score [12] | selective drug sensitivity score [13] | selective drug sensitivity score [14] | selective drug sensitivity score [15] | selective drug sensitivity score [16] | selective drug sensitivity score [17] | selective drug sensitivity score [18] | selective drug sensitivity score [19] | selective drug sensitivity score [20]
CN(C)c1cc2c(cc1Sc1nc3c(N)nccc3n1CCNCC(C)(C)C)OCO2 [CUDC-305] (top concentration 10000 nM) | -1.28 | 4.72 | 1.22 | 3.22 | -0.28 | 5.12 | 3.02 | 2.92 | 7.52 | 3.82 | 1.02 | 4.42 | 0.42 | 8.12 | 7.62 | 5.02 | 3.32 | 0.92 | 4.02 | -6.68
NC(=O)Nc1cc(-c2cccc(F)c2)sc1C(=O)N[C@H]1CCCNC1 [AZD7762] (top concentration 1000 nM) | -3.5 | 0.6 | -0.7 | -0.4 | -4.2 | 19 | 0 | 2.6 | 9.2 | -0.8 | 5.1 | -1.5 | -0.7 | 8.2 | 7.6 | 1.8 | 3.5 | 0.3 | 7.9 | -5
COC(=O)C[C@](O)(CCCC(C)(C)O)C(=O)O[C@@H]1C(OC)=C[C@]23CCCN2CCc2cc4c(cc2[C@H]13)OCO4 [Omacetaxine] (top concentration 10000 nM) | 13 | 4.52 | -0.48 | 7.82 | 10.8 | 4.22 | -1.88 | 10.5 | -3.38 | 2.62 | 3.82 | 6.32 | -1.88 | 4.92 | 7.12 | 3.72 | 1.32 | 3.52 | 7.22 | -14.8
CCNC(=O)c1noc(-c2cc(C(C)C)c(O)cc2O)c1-c1ccc(CN2CCOCC2)cc1 [Luminespib] (top concentration 1000 nM) | -5.2 | -0.5 | -5.5 | -1 | 6.5 | 2.1 | -0.1 | -1.5 | 4.6 | 7.1 | -3.9 | 4.6 | -3.7 | 6.7 | 7.4 | -2.7 | -3.7 | 1.7 | 3.6 | -10.5
C[C@@H](Oc1cc(-n2cnc3ccc(CN4CCN(C)CC4)cc32)sc1C(N)=O)c1ccccc1C(F)(F)F (top concentration 10000 nM) | 3.22 | 15.8 | 22.8 | 27.2 | 15 | 28.3 | 23.4 | 20.5 | 22 | 20.5 | 18.4 | 20.2 | 30 | 24.2 | 25.4 | 28.8 | 16.6 | -3.18 | 20.9 | -11.2
O=C(c1ccc(F)c(F)c1Nc1ccc(I)cc1F)N1CC(O)([C@@H]2CCCCN2)C1 [Cobimetinib] (top concentration 1000 nM) | -2.48 | 2.62 | -3.68 | 6.62 | 4.22 | -2.48 | -2.98 | -2.58 | 0.92 | -3.08 | 0.42 | -3.68 | -2.78 | -0.28 | -3.68 | -3.68 | 0.32 | 2.62 | -3.68 | -3.68
Nc1nc2[nH]cc(CCc3ccc(C(=O)N[C@@H](CCC(=O)O)C(=O)O)cc3)c2c(=O)[nH]1 [Pemetrexed] (top concentration 10000 nM) | 1.58 | 24.5 | 15.6 | 28 | 19.3 | 25.6 | 15.5 | 28.3 | 30.9 | 21.9 | 18.7 | 28.4 | 15.5 | 28.2 | 25.1 | 9.98 | 20.8 | 15.2 | 28.8 | -0.72
CC#CC(=O)N1CC[C@@H](n2c(=O)n(-c3ccc(Oc4ccccc4)cc3)c3c(N)ncnc32)C1 [Tirabrutinib] (top concentration 1000 nM) | 0 | 0 | 0 | 14.7 | 2.9 | 1.1 | 0 | 0 | 0 | 1.8 | 0 | 0.9 | 0 | 0.8 | 0 | 2.5 | 6.5 | 1.5 | 11 | 0
CO[C@@H](C)Cn1c(=O)n(C)c2cnc3ccc(-c4cncc(C(C)(C)O)c4)cc3c21 (top concentration 2500 nM) | -1.82 | 3.68 | 2.98 | 6.98 | 12.3 | 5.08 | 4.78 | 9.78 | 4.88 | 4.18 | 6.98 | 11.9 | 3.38 | 5.58 | 0.78 | 2.08 | 1.98 | 1.08 | 17.6 | -5.12
C1=N/C2=N/c3ccc(OCCN4CCCC4)c(c3)COC/C=C/COCc3cccc(c3)C(=C1)N2 [Pacritinib] (top concentration 10000 nM) | -4 | -2.3 | -8 | -3.7 | -2.3 | 1.5 | -3.6 | -2.6 | -0.4 | -4.1 | -7.9 | -5.6 | -5.6 | -3.5 | -8.3 | -2.9 | -0.6 | -5.3 | 9.2 | -8.4
CC(=O)OC[C@H]1O[C@@H]([S-])[C@H](OC(C)=O)[C@@H](OC(C)=O)[C@@H]1OC(C)=O.CCP(CC)CC.[Au+] [Auranofin] (top concentration 2500 nM) | 0.14 | 5.34 | -1.76 | 12.6 | 0.54 | 1.34 | 2.44 | 1.94 | 0.34 | 1.44 | 8.14 | 1.74 | 0.74 | -1.86 | 3.44 | 0.94 | 6.44 | 7.34 | 3.84 | -1.06
O=C(/C=C/c1cccnc1)NCCCCC1CCN(C(=O)c2ccccc2)CC1 [Daporinad] (top concentration 1000 nM) | -4.44 | 15.6 | 8.76 | 19.4 | 8.66 | 17.2 | 9.46 | 16.3 | 13.8 | 17 | 11.4 | 11.2 | 8.76 | 6.76 | 17.7 | 18.4 | 7.26 | 7.66 | 19.5 | 7.66
CC(C)C[C@H](NC(=O)[C@H](Cc1ccccc1)NC(=O)c1cnccn1)B(O)O [Bortezomib] (top concentration 1000 nM) | 2.42 | 1.82 | 1.72 | 8.42 | 1.42 | 12.9 | 4.72 | 2.62 | 4.82 | 4.22 | 3.82 | 2.02 | 2.32 | 5.82 | 3.02 | 1.42 | 4.12 | 3.92 | 3.42 | -9.68
C[C@]12C=CC(=O)C=C1CC[C@@H]1[C@@H]2[C@@H](O)C[C@@]2(C)[C@H]1CC[C@]2(O)C(=O)CO [Prednisolone] (top concentration 10000 nM) | -3 | 15.9 | -2.1 | 28.1 | 13.5 | 2.9 | 8.9 | 17.8 | 28.9 | 2.5 | 23.1 | 3.5 | -3 | 9.3 | 2.6 | 12.3 | -2.6 | 25.5 | 26.8 | -2.8
Cn1c(=O)n(-c2ccc(C(C)(C)C#N)cc2)c2c3cc(-c4cnc5ccccc5c4)ccc3ncc21 [Dactolisib] (top concentration 1000 nM) | -3.94 | 6.36 | 7.26 | 10.3 | 9.06 | 10.4 | 4.96 | 15.8 | 4.56 | 5.96 | 9.36 | 16.1 | 5.06 | 11.1 | 2.26 | 6.56 | 9.66 | 4.06 | 21.3 | -2.54
Cc1cc([C@@H](C)Nc2ccccc2C(=O)O)c2nc(N3CCOCC3)cc(=O)n2c1 [AZD-6482] (top concentration 2500 nM) | -0.28 | 5.62 | -0.28 | 2.22 | 10.2 | 1.92 | -0.28 | 3.12 | 3.92 | 1.32 | 2.82 | -0.28 | -0.28 | 2.12 | -0.18 | 1.82 | 6.62 | 1.92 | 17.6 | 0.02
COc1ccc(CCc2nc3cc(-c4c(C)noc4C)ccc3n2C[C@H](C)N2CCOCC2)cc1Cl [SGC-CBP30] (top concentration 25000 nM) | 5.38 | 0.08 | 2.18 | 6.28 | -2.12 | 6.48 | 4.68 | 2.48 | 4.38 | 0.28 | 5.88 | 6.58 | 4.08 | 2.38 | 5.98 | 4.98 | 3.98 | 1.68 | 7.88 | -3.12
O=C(/C=C\n1cnc(-c2cc(C(F)(F)F)cc(C(F)(F)F)c2)n1)NNc1ccccn1 [Verdinexor] (top concentration 1000 nM) | 3.64 | 11.7 | 8.74 | 11.2 | 12.9 | 0.34 | 3.74 | 6.34 | 7.54 | 7.74 | 1.84 | 11.1 | 5.44 | 9.84 | 12.5 | 7.54 | 3.94 | 1.84 | 9.04 | -6.96
